Reference: patent US20230330051A1, “METHOD FOR MODULATING WEIGHT” (Yeda Research and Development Co. Ltd., priority 2020, published 2023)

Assays:
Type in all cases: in vivo, C57BL/6J male mice
[1] = Weight change of naive HFD-consuming mice upon metabolite administration; conditions: naive HFD-consuming 10-week-old C57bl male mice
Description: Mice. Eight-weeks old C57BL/6J male mice were purchased from Harlan. All mice were maintained in the animal facility of the Weizmann Institute and acclimatized for two weeks before the initiation of experiments. Mice were fed on normal chow (NC) or switched to a high-fat diet (HFD, D12492, 60% kcal from fat, Research Diets)/ choline-deficient diet (CDD, rodent diet with 60 kcal % fat without added Choline) three days prior to the experimental starting point. […] For all experiments, the mice were assigned to each group based on their weight in order to create weight-matched groups and eliminate weight differences at the beginning of the experiments. […] Lean and fat mass was determined by nuclear magnetic resonance (NMR) using Bruker minispec LF50.mq7.5 MHZ live mice analyzer.
(§1) Data extraction and compound identification- raw data was extracted, peak-identified and QC processed using Metabolon's hardware and software. […] The cut was then closed with sterile surgical clips and the mice were carefully monitored for any signs of stress, bleeding, pain, or abnormal behavior. […]
Importantly, the predicted levels of biosynthetic enzymes (PICRUSTt2, P542-PWY) of the choline to betaine pathway and the pathway's measured intermediary levels (Choline to Betaine) were altered in actively smoking mice (FIG. 1D). […]

[2] = Smoking cessation-associated weight gain (SCWG) model in mice
Description: Mice. Eight-weeks old C57BL/6J male mice were purchased from Harlan. All mice were maintained in the animal facility of the Weizmann Institute and acclimatized for two weeks before the initiation of experiments. Mice were fed on normal chow (NC) or switched to a high-fat diet (HFD, D12492, 60% kcal from fat, Research Diets)/ choline-deficient diet (CDD, rodent diet with 60 kcal % fat without added Choline) three days prior to the experimental starting point. […] For all experiments, the mice were assigned to each group based on their weight in order to create weight-matched groups and eliminate weight differences at the beginning of the experiments. Two weeks before experimental starting point, antibiotic-treated groups were given a combination of vancomycin (0.5 g/l), ampicillin (1 g/l), neomycin (1 g/l), and metronidazole (1 g/l) ad libitum in their drinking water, referred to as 4-way abx. […] Lean and fat mass was determined by nuclear magnetic resonance (NMR) using Bruker minispec LF50.mq7.5 MHZ live mice analyzer.
Cigarette Smoke Exposure. […] Smoke levels were measured at least twice daily. […]
as §1

[3] = Bomb calorimetry of stool (residual caloric content); conditions: three weeks into DMG or PBS administration; inversely correlates with intestinal energy harvest
Method: Bomb calorimetry. Mice were transferred to a clean single housed cage, fecal samples collected and stored at −80° C. Before use, samples were dried with FreeZone 4.5-liter cascade benchtop freeze dry system (Labconco) for 24 hours. Gross energy content was measured using a water handling system (6510) and a bomb calorimeter (6200) by Parr Instrument Co. The calorimeter energy equivalent factor was determined using benzoic acid standards.

SMILES | Weight gain under ACG consumption ([1]; 7500 mg N-Acetylglycine/kg diet, vs HFD-fed control) | SCWG upon ACG supplementation ([2]; non-antibiotics-treated smoking-cessation mice, HFD-ACG vs HFD) | Weight change upon DMG administration ([1]; osmotic pumps, 100 mg/kg/day, 21 days, vs vehicle (PBS)) | Residual caloric content in stool [3] | SCWG upon DMG supplementation ([2]; antibiotics-treated smoking-cessation HFD-fed mice, DMG via osmotic pumps started prior to cessation, vs vehicle)
CC(=O)NCC(=O)O [ACG, N-acetylglycine] | significantly lower weight gain | prevented SCWG |  |  | 
CN(C)CC(=O)O [DMG, N,N-Dimethylglycine] |  |  | significant weight gain | lower residual calories | restored SCWG
